Experimental data reported in US6906061B2, “Pharmaceutical agent containing Rho kinase inhibitor” (Mitsubishi Pharma Corporation, priority 1996, dated 2005).

Key:
[1] = system: BALB/c spleen cells stimulated with C57BL/6 spleen cells; assay: Inhibition of mouse allogenic mixed lymphocyte reaction; assay type: cell-based; conditions: Mus musculus, Lymphocyte, 96 h; 4 days culture, MTT; read-out: Mouse allogenic MLR inhibitory activity IC50
Experimental: Inhibition of Mouse Allogenic Mixed Lymphocyte Reaction
A mouse allogenic mixed lymphocyte reaction (hereinafter to be referred to as mouse allogenic MLR) was performed by mixed culture (equal ratio) of the spleen cell of BALB/c mice as the reaction cell and the spleen cell of C57BL/6 mice treated with mitomycin C as stimulated cell.
The reaction cells were prepared by the following method. Spleen was removed from 5-6 week old BALB/c mice and treated with RPMI1640 medium (containing kanamycin sulfate (60 μg/ml), penicillin G potassium (100 units/ml), N-2-hydroxyethylpiperazine-N′-2-ethanesulfonate (10 mM), 0.1% sodium hydrogencarbonate and L-glutamin (2 mM)) supplemented with 5% heat inactivated fetal bovine serum (FBS) to give a single cell suspension of the spleen cell. After hemolysis treatment, the suspension was adjusted to10^7 cells/ml with RPMI1640 medium containing 10^−4 M 2-mercaptoethanol and 10% FBS and used as a reaction cell suspension.
The reaction cell suspension (50 μl) prepared by the above method, stimulated cell suspension (50 μl) and the test compound (100 μl) prepared using RPMI1640 medium containing 10% FBS were added to a 96 well plate and incubated at 37° C. under 5% CO2 gas, 95% air for 4 days.
A pigment assay using 3-(4,5-dimethylthiazol-2-yl)-2,5-diphenyltetrazolium bromide (MTT) was applied for the determination of lymphocyte transformation reaction.
After the completion of culture, the supernatant (100 μl) in each well was removed, and 5 mg/ml MTT solution (20 μl) was added to each well, which was followed by incubation at 37° C. for 4 hours. Then, a 0.01 N hydrochloric acid solution (100 μl) containing 10% sodium dodecyl sulfate was added and the mixture was incubated at 37° C. overnight. The resulting purple crystals of formazan was dissolved and absorbance at 550 nm was measured using a microplate absorption meter, which was used as the index of lymphocyte transformation reaction of the mouse allogenic MLR. The inhibition of mouse allogenic MLR was evaluated by calculating the inhibition percentage by the following formula The results are shown in Table 7.

[2] = system: CEM cells (human T cell type established cell); assay: Inhibition of VLA integrin activation (phorbol ester-induced adhesion of CEM cells to fibronectin); assay type: cell-based; conditions: CCRF-CEM, concentration 100 μM, PMA-induced adhesion, read-out: Adhesion induction inhibition (%)
Experimental: Inhibition of VLA (Very Late Antigen) Integrin Activation
As the index of the activation by VLA integrin, phorbol ester-induced adhesion of CEM cells (human T cell type established cell) to fibronectin, which is a ligand of VIA integrin, was measured. The inhibitory action on the induced adhesion by the test compound was determined by the following method.
CEM cells were washed with RPMI1640 medium containing 0.5% bovine serum albumin (BSA), 10 mM HEPES, 2 mM L-glutamin, 1 mM sodium pyruvate, 60 μg/ml kanamycin sulfate and 1.5 mg/ml sodium hydrogencarbonate (hereinafter this medium is referred to as culture solution) and suspended in this medium for use in the following experiment. To each well of a 96 well plate coated with human fibronectin were added CEM cells (5×10^4) and the test compound dissolved in the culture solution (final concentration 1-100 μM) to the amount of 100 μl, and the plate was stood at 37° C. for 1 hour. Then, PMA (phorbol 12-myristate 13-acetate, TPA; final concentration 10 ng/ml) and the test compound were added to the amount of 200 μl, and the plate was stood at 37° C. for 30 minutes. Each well was washed twice with the culture solution (200 μL) at 37° C., and the LDH (lactate dehydrogenase) activity of the cells adhered to the plate was determined, whereby the amount of the adhered cell was measured. Based on the results obtained by the above-mentioned method, the inhibitory action of the test compound on the induced adhesion was calculated by the following formula The results are shown in Table 6. Inhibition (%) of adhesion induction=(a−b)/(a−c)×100 • a=number of cells adhered with the addition of PMA • b=number of cells adhered with the addition of test compound and PMA • c=number of cells adhered without stimulation

mouse femoral bone = assay: Inhibition of bone resorption (in vitro), mouse femoral bone; conditions: 144 h, 6 days incubation of ICR mouse femoral bone
How it was run: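 Femurs from 3–6-week male ICR mice, marrow flushed, cultured 6 days in F12 with 10% FBS under 5% CO2 with test compound (DMSO-dissolved; DMSO-only controls). Calcium released into supernatant measured by o-cresolphthalein chelate method; inhibition calculated against untreated bone, n=4 per group.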

[3] = system: Bovine Aorta Thoracia Rho Kinase; assay: Rho kinase inhibitory action (inhibition of bovine aorta thoracia Rho kinase); assay type: biochemical
Experimental: Rho Kinase Inhibitory Action (Inhibition of Bovine Aorta Thoracia Rho Kinase)
The Rho kinase was prepared from bovine aorta of thorax by partial purification as in the following. The artery was minced and homogenized with a 9-fold amount of 50 mM Tris-hydroxymethylaminomethane (Tris) (pH=7.4), 1 mM dithiothreitol, 1 mM EGTA, 1 mM EDTA, 100 μM p-amidinophenylmethylsulfonyl fluoride, 5 μM E-64, 5 μM leupeptine and 5 μM pepstatin A. The homogenate was centrifuged (10,000×g, 30 minutes) to give supernatant. The supernatant was adsorbed onto a hydroxyapatite column. The column was washed with 0.2M phosphate buffer (pH=6.8). The standard product of Rho kinase was eluted with 0.4M phosphate buffer (pH=6.8). The Rho kinase was assayed as follows.
A reaction mixture (total amount 50 μl) containing 50 mM Tris, 1 mM EDTA, 5 mM MgCl2, 50 μg/ml histone, 10 μM GTPγS, 100 μg/ml Rho, 2 μM [^32P]ATP, the Rho kinase (3 μl) prepared in the above and the test compound was reacted at 30° C. for 5 minutes. The reaction was terminated by the addition of 25% trichloroacetic acid (TCA) solution (1 ml) and the mixture was stood at 4° C. for 30 minutes. Then, the mixture was filtered through a membrane filter (HAWP type, Millipore), and the radioactivity of the filter was counted on a liquid scintillation counter. The inhibitory action of the test compound was calculated from the following formula based on the comparison of the radioactivity with the sample without the test compound (control).

SMILES: CC(N)[C@H]1CC[C@H](C(=O)Nc2ccncc2)CC1 (single isomer, unassigned; (+)) [Compound 80.2HCl.H2O, (+)-trans-4-(1-aminoethyl)-1-(4-pyridylcarbamoyl)cyclohexane]
- IC50 [1]: 9.6 µM
- inhibition at 100 µM [2]: 70%
- inhibition at 100 µM (mouse femoral bone): 40.9%
- Inhibition (%) ([3]; test compound 10 μM): 100%

SMILES: CC(N)[C@H]1CC[C@H](C(=O)Nc2ccnc3[nH]ccc23)CC1 (single isomer, unassigned; (+)) [Compound 109.2HCl, (+)-trans-N-(1H-pyrrolo[2,3-b]pyridin-4-yl)-4-(1-aminoethyl)cyclohexanecarboxamide]
- IC50 [1]: 1.6 µM
- inhibition at 100 µM [2]: 67%
- inhibition at 100 µM (mouse femoral bone): 42.6%
- Inhibition (%) ([3]; test compound 1 μM): 81%
- Inhibition (%) ([3]; test compound 10 μM): 100%
